Values quoted from earlier work in patent publication US20210267912A1, “METHYL SULFONYL METHANE-CONTAINING COMPOSITION FOR PREVENTING OR ALLEVIATING OBESITY, FATTY LIVER, AND DIABETES” (priority 2018, published 2021).

Conditions: animal toxicity test

Q: Which Half lethal dose does the source give for `CS(C)(=O)=O` [Methylsulfonylmethane] here?
A: The Half lethal dose was “more than 20 g per 1 kg of body weight”.
